Data taken from patent US9340590B2 (priority 2011, dated 2016).
Positions of bridges follow the written chain, without caps; N, C: chain ends. Non-standard residues stand in square brackets, D forms with d. Residues, ends and D or L forms follow the SMILES beside them. Phe(4-COOH) = N[C@@H](Cc1ccc(C(=O)O)cc1)C(=O)O; Trp(1-Me) = Cn1cc(C[C@H](N)C(=O)O)c2ccccc21; 2Pal = N[C@@H](Cc1ccccn1)C(=O)O; 3Pal = N[C@@H](Cc1cccnc1)C(=O)O

Assays:
hNav1.5 = hNav1.5 (Homo sapiens, UniProt Q14524); experiment: cell-based
hNav1.7 = hNav1.7 (Homo sapiens, UniProt Q15858); experiment: cell-based; conditions: Nav1.7 Use IC50
Sequence of hNav1.7 (Q15858 whole entry, looked up): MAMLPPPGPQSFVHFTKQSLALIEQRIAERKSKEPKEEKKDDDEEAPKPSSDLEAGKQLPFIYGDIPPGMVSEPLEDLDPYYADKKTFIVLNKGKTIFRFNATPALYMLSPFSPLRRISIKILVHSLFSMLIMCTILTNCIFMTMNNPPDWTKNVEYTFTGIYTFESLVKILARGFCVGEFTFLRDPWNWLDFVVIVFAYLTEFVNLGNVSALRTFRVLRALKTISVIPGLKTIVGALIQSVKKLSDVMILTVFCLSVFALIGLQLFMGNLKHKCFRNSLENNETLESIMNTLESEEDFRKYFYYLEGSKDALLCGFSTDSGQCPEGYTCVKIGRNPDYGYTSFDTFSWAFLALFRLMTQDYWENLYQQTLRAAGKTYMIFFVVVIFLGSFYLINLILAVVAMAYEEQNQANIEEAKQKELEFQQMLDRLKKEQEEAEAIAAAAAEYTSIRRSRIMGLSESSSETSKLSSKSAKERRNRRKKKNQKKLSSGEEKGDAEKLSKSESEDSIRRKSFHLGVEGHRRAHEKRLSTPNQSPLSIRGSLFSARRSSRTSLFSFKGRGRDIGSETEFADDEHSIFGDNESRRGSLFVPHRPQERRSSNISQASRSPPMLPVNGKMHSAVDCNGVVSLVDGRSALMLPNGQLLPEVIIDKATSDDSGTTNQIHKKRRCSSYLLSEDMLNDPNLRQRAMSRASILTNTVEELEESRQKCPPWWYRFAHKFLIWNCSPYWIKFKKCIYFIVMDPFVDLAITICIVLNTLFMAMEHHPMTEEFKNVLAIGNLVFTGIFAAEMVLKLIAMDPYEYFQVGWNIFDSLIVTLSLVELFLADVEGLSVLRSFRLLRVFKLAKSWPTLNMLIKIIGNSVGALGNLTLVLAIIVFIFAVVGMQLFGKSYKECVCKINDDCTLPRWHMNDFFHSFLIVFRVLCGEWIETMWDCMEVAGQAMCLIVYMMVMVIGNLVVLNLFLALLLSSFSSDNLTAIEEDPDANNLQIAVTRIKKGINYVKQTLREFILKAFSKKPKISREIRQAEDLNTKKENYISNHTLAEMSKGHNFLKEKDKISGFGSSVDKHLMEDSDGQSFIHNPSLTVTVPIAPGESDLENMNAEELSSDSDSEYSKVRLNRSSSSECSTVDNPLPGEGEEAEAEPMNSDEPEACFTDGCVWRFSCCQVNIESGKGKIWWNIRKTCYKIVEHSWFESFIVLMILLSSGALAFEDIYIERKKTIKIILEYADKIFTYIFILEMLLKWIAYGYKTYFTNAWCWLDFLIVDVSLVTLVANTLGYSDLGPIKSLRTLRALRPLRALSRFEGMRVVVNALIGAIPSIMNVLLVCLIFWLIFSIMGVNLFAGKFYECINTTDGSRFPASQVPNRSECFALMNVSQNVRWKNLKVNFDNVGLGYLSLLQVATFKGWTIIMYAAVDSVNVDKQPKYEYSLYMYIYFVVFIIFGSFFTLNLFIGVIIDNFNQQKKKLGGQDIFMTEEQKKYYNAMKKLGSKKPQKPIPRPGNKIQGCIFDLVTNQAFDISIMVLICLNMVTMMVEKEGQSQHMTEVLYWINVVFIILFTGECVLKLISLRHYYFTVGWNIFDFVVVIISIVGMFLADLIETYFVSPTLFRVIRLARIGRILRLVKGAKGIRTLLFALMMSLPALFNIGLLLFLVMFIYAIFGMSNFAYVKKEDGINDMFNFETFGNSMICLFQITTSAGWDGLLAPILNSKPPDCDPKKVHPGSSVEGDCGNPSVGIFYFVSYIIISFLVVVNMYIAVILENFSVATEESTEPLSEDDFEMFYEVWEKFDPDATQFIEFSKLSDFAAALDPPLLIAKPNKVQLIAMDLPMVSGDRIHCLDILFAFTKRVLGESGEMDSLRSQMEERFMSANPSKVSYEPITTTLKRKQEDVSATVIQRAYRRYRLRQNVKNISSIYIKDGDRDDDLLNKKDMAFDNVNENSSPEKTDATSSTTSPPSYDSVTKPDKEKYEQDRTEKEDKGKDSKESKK

Sequence of hNav1.5 (Q14524 whole entry, looked up): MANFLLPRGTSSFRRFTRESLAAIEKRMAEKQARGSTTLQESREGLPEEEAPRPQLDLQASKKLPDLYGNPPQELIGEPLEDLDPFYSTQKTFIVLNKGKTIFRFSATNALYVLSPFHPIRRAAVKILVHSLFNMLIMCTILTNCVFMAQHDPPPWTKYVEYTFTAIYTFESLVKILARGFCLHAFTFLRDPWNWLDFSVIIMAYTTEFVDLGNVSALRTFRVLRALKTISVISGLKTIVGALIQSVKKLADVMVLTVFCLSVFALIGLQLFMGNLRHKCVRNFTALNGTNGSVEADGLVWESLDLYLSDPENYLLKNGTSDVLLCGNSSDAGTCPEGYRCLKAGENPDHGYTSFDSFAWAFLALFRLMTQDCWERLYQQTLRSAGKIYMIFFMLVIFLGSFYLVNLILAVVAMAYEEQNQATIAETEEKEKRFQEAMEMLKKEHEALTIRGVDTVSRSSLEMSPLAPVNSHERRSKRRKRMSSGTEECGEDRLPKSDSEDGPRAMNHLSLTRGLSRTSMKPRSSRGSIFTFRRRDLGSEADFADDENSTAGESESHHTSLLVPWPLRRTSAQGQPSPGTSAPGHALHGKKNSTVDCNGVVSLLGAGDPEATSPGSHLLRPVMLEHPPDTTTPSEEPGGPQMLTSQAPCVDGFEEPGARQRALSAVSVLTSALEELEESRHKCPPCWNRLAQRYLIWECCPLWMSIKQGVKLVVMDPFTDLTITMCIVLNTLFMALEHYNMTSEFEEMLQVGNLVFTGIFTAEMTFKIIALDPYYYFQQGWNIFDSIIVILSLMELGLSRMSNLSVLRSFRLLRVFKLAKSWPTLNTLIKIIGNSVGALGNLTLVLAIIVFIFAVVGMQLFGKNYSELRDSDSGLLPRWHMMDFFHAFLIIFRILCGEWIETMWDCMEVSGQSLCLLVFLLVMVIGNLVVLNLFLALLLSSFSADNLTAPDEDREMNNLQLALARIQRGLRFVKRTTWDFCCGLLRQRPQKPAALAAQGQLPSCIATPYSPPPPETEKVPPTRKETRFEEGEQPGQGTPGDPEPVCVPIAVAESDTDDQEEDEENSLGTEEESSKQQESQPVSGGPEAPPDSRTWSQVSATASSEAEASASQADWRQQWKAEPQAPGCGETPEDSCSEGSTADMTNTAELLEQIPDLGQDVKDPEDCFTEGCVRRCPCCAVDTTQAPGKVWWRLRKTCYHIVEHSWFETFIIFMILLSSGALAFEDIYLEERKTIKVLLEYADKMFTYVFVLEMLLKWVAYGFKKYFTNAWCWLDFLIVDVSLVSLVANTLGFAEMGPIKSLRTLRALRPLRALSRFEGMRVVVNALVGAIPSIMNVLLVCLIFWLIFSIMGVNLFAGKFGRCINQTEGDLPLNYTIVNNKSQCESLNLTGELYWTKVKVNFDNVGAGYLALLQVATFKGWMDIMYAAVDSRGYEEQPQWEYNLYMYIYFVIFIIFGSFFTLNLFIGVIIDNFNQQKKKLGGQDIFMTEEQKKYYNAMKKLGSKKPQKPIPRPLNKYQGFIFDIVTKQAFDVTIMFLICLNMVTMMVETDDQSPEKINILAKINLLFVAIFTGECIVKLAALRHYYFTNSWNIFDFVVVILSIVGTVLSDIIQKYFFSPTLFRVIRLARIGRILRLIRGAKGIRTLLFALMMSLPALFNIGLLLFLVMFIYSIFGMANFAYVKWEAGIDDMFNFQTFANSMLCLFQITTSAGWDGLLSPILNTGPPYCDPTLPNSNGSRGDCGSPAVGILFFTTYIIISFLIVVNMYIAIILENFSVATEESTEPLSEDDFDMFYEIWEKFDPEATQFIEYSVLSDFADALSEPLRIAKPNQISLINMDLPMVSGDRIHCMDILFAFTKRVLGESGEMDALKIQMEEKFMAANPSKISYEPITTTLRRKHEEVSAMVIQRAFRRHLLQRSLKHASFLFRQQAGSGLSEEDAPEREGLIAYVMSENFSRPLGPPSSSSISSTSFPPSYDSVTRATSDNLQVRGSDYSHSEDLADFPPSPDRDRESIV

SMILES: CC[C@H](C)[C@@H]1NC(=O)[C@@H]2CSSC[C@@H]3NC(=O)[C@H](C(C)C)NC(=O)[C@H](CC(C)C)NC(=O)[C@H](CC(N)=O)NC(=O)[C@@H]4CCCN4C(=O)[C@H](CCCNC(=N)N)NC(=O)[C@H](CSSC[C@H](NC(=O)[C@@H](N)CC(=O)O)C(=O)N[C@@H](CC(C)C)C(=O)NCC(=O)N[C@@H](Cc4ccccc4)C(=O)N[C@@H](CCSC)C(=O)N[C@@H](CCCNC(=N)N)C(=O)N[C@@H](CCCCN)C(=O)N2)NC(=O)[C@H](CSSC[C@@H](C(=O)N[C@@H](CCCCN)C(=O)N[C@@H](Cc2ccc(O)cc2)C(=O)N[C@@H](Cc2ccccn2)C(=O)N[C@@H](Cc2ccccc2)C(N)=O)NC(=O)[C@H](Cc2c[nH]c4ccccc24)NC(=O)[C@H](CCCCN)NC(=O)[C@H](Cc2c[nH]cn2)NC(=O)[C@H]([C@@H](C)O)NC(=O)[C@H](CCCNC(=N)N)NC(=O)[C@H](CO)NC3=O)NC(=O)[C@H](CCCCN)NC(=O)[C@H](CC(=O)O)NC(=O)[C@H](CC(N)=O)NC(=O)[C@H](CC(=O)O)NC(=O)[C@@H]2CCCN2C1=O [[2PAL33]GpTx-1(1-34)] (H-DCLGFMRKCIPDNDKCCRPNLVCSRTHKWCKY[2Pal]F-NH2; disulfide 2-17, 9-23, 16-30)
- IC50 (hNav1.5): 3460 nM
- IC50 (hNav1.7): 10 nM

SMILES: CC[C@H](C)[C@@H]1NC(=O)[C@@H]2CSSC[C@@H]3NC(=O)[C@H](C(C)C)NC(=O)[C@H](CC(C)C)NC(=O)[C@H](CC(N)=O)NC(=O)[C@@H]4CCCN4C(=O)[C@H](CCCNC(=N)N)NC(=O)[C@H](CSSC[C@H](NC(=O)[C@@H](N)CC(=O)O)C(=O)N[C@@H](CC(C)C)C(=O)NCC(=O)N[C@@H](Cc4cccnc4)C(=O)N[C@@H](Cc4ccccc4)C(=O)N[C@@H](CCCNC(=N)N)C(=O)N[C@@H](CCCCN)C(=O)N2)NC(=O)[C@H](CSSC[C@@H](C(=O)N[C@@H](CCCCN)C(=O)N[C@@H](Cc2ccc(O)cc2)C(=O)N[C@H](C(=O)N[C@@H](Cc2ccccc2)C(N)=O)C(C)C)NC(=O)[C@H](Cc2c[nH]c4ccccc24)NC(=O)[C@H](CCCCN)NC(=O)[C@H](Cc2c[nH]cn2)NC(=O)[C@H]([C@@H](C)O)NC(=O)[C@H](CCCNC(=N)N)NC(=O)[C@H](CO)NC3=O)NC(=O)[C@H](CCCCN)NC(=O)[C@H](CC(=O)O)NC(=O)[C@H](CC(N)=O)NC(=O)[C@H](CC(=O)O)NC(=O)[C@@H]2CCCN2C1=O [[3Pal5;Phe6]GpTx-1(1-34)] (H-DCLG[3Pal]FRKCIPDNDKCCRPNLVCSRTHKWCKYVF-NH2; disulfide 2-17, 9-23, 16-30)
- IC50 (hNav1.5): > 10000 nM
- IC50 (hNav1.7): 63 nM

SMILES: CC[C@H](C)[C@@H]1NC(=O)[C@@H]2CSSC[C@@H]3NC(=O)[C@H](C(C)C)NC(=O)[C@H](CC(C)C)NC(=O)[C@H](CC(N)=O)NC(=O)[C@@H]4CCCN4C(=O)[C@H](CCCNC(=N)N)NC(=O)[C@H](CSSC[C@H](NC(=O)[C@@H](N)CC(=O)O)C(=O)N[C@@H](CC(C)C)C(=O)NCC(=O)N[C@@H](Cc4ccccc4)C(=O)N[C@@H](CCSC)C(=O)N[C@@H](CCCNC(=N)N)C(=O)N[C@@H](CCCCN)C(=O)N2)NC(=O)[C@H](CSSC[C@@H](C(=O)N[C@@H](CCCCN)C(=O)N[C@@H](Cc2ccc(O)cc2)C(=O)N[C@H](C(=O)N[C@@H](Cc2ccccc2)C(N)=O)C(C)C)NC(=O)[C@H](Cc2c[nH]c4ccccc24)NC(=O)[C@H](CCCCN)NC(=O)[C@H](Cc2c[nH]cn2)NC(=O)[C@H](Cc2ccc(C(=O)O)cc2)NC(=O)[C@H](CCCNC(=N)N)NC(=O)[C@H](CO)NC3=O)NC(=O)[C@H](CCCCN)NC(=O)[C@H](CC(=O)O)NC(=O)[C@H](CC(N)=O)NC(=O)[C@H](CC(=O)O)NC(=O)[C@@H]2CCCN2C1=O [[4CO2-F26]GpTx-1(1-34)] (H-DCLGFMRKCIPDNDKCCRPNLVCSR[Phe(4-COOH)]HKWCKYVF-NH2; disulfide 2-17, 9-23, 16-30)
- IC50 (hNav1.5): > 10000 nM
- IC50 (hNav1.7): 65 nM

SMILES: CC[C@H](C)[C@@H]1NC(=O)[C@@H]2CSSC[C@@H]3NC(=O)[C@H](C(C)C)NC(=O)[C@H](CC(C)C)NC(=O)[C@H](CC(N)=O)NC(=O)[C@@H]4CCCN4C(=O)[C@H](CCCNC(=N)N)NC(=O)[C@H](CSSC[C@H](NC(=O)[C@@H](N)CC(=O)O)C(=O)N[C@@H](CC(C)C)C(=O)NCC(=O)N[C@@H](Cc4ccccc4)C(=O)N[C@@H](CCSC)C(=O)N[C@@H](CCCNC(=N)N)C(=O)N[C@@H](CCCCN)C(=O)N2)NC(=O)[C@H](CSSC[C@@H](C(=O)N[C@@H](CCCCN)C(=O)N[C@@H](Cc2ccc(O)cc2)C(=O)N[C@@H](Cc2ccc(C(=O)O)cc2)C(=O)N[C@@H](Cc2ccccc2)C(N)=O)NC(=O)[C@H](Cc2c[nH]c4ccccc24)NC(=O)[C@H](CCCCN)NC(=O)[C@H](Cc2c[nH]cn2)NC(=O)[C@H]([C@@H](C)O)NC(=O)[C@H](CCCNC(=N)N)NC(=O)[C@H](CO)NC3=O)NC(=O)[C@H](CCCCN)NC(=O)[C@H](CC(=O)O)NC(=O)[C@H](CC(N)=O)NC(=O)[C@H](CC(=O)O)NC(=O)[C@@H]2CCCN2C1=O [[4CO2-F33]GpTx-1(1-34)] (H-DCLGFMRKCIPDNDKCCRPNLVCSRTHKWCKY[Phe(4-COOH)]F-NH2; disulfide 2-17, 9-23, 16-30)
- IC50 (hNav1.5): > 10000 nM
- IC50 (hNav1.7): 3 nM

SMILES: CC[C@H](C)[C@@H]1NC(=O)[C@@H]2CSSC[C@@H]3NC(=O)[C@H](C(C)C)NC(=O)[C@H](CC(C)C)NC(=O)[C@H](CC(N)=O)NC(=O)[C@@H]4CCCN4C(=O)[C@H](CCCNC(=N)N)NC(=O)[C@H](CSSC[C@H](NC(=O)[C@@H](N)CC(=O)O)C(=O)N[C@@H](CC(C)C)C(=O)NCC(=O)NC(C)(C)C(=O)N[C@@H](CC(C)C)C(=O)N[C@@H](CCCNC(=N)N)C(=O)N[C@@H](CCCCN)C(=O)N2)NC(=O)[C@H](CSSC[C@@H](C(=O)N[C@@H](CCCCN)C(=O)N[C@@H](Cc2ccc(O)cc2)C(=O)N[C@H](C(=O)N[C@@H](Cc2ccccc2)C(N)=O)C(C)C)NC(=O)[C@H](Cc2c[nH]c4ccccc24)NC(=O)[C@H](CCCCN)NC(=O)[C@H](Cc2c[nH]cn2)NC(=O)[C@H]([C@@H](C)O)NC(=O)[C@H](CCCNC(=N)N)NC(=O)[C@H](CO)NC3=O)NC(=O)[C@H](CCCCN)NC(=O)[C@H](CC(=O)O)NC(=O)[C@H](CC(N)=O)NC(=O)[C@H](CC(=O)O)NC(=O)[C@@H]2CCCN2C1=O [[Aib5;Leu6]GpTx-1(1-34)]
- IC50 (hNav1.5): > 10000 nM
- IC50 (hNav1.7): 20 nM

SMILES: CC[C@H](C)[C@@H]1NC(=O)[C@@H]2CSSC[C@@H]3NC(=O)[C@H](C(C)C)NC(=O)[C@H](CC(C)C)NC(=O)[C@H](CC(N)=O)NC(=O)[C@@H]4CCCN4C(=O)[C@H](CCCNC(=N)N)NC(=O)[C@H](CSSC[C@H](NC(=O)[C@@H](N)CC(=O)O)C(=O)N[C@@H](CC(C)C)C(=O)NCC(=O)N[C@@H](C)C(=O)N[C@@H](Cc4ccccc4)C(=O)N[C@@H](CCCNC(=N)N)C(=O)N[C@@H](CCCCN)C(=O)N2)NC(=O)[C@H](CSSC[C@@H](C(=O)N[C@@H](CCCCN)C(=O)N[C@@H](Cc2ccc(O)cc2)C(=O)N[C@H](C(=O)N[C@@H](Cc2ccccc2)C(N)=O)C(C)C)NC(=O)[C@H](Cc2c[nH]c4ccccc24)NC(=O)[C@H](CCCCN)NC(=O)[C@H](Cc2c[nH]cn2)NC(=O)[C@H]([C@@H](C)O)NC(=O)[C@H](C)NC(=O)[C@H](CO)NC3=O)NC(=O)[C@H](CCCCN)NC(=O)[C@H](CC(=O)O)NC(=O)[C@H](CC(N)=O)NC(=O)[C@H](CC(=O)O)NC(=O)[C@@H]2CCCN2C1=O [[Ala5,25;Phe6]GpTx-1(1-34)] (H-DCLGAFRKCIPDNDKCCRPNLVCSATHKWCKYVF-NH2; disulfide 2-17, 9-23, 16-30)
- IC50 (hNav1.5): > 10000 nM
- IC50 (hNav1.7): 86 nM

SMILES: CC[C@H](C)[C@@H]1NC(=O)[C@@H]2CSSC[C@@H]3NC(=O)[C@H](C(C)C)NC(=O)[C@H](CC(C)C)NC(=O)[C@H](CC(N)=O)NC(=O)[C@@H]4CCCN4C(=O)[C@H](CCCNC(=N)N)NC(=O)[C@H](CSSC[C@H](NC(=O)[C@@H](N)CC(=O)O)C(=O)N[C@@H](CC(C)C)C(=O)NCC(=O)N[C@@H](C)C(=O)N[C@@H](Cc4cn(C)c5ccccc45)C(=O)N[C@@H](CCCNC(=N)N)C(=O)N[C@@H](CCCCN)C(=O)N2)NC(=O)[C@H](CSSC[C@@H](C(=O)N[C@@H](CCCCN)C(=O)N[C@@H](Cc2ccc(O)cc2)C(=O)N[C@H](C(=O)N[C@@H](Cc2ccccc2)C(N)=O)C(C)C)NC(=O)[C@H](Cc2c[nH]c4ccccc24)NC(=O)[C@H](CCCCN)NC(=O)[C@H](Cc2c[nH]cn2)NC(=O)[C@H]([C@@H](C)O)NC(=O)[C@H](CCCNC(=N)N)NC(=O)[C@H](CO)NC3=O)NC(=O)[C@H](CCCCN)NC(=O)[C@H](CC(=O)O)NC(=O)[C@H](CC(N)=O)NC(=O)[C@H](CC(=O)O)NC(=O)[C@@H]2CCCN2C1=O [[Ala5;1′NMeW6]GpTx-1(1-34)]
- IC50 (hNav1.5): > 10000 nM
- IC50 (hNav1.7): 51 nM

SMILES: CC[C@H](C)[C@@H]1NC(=O)[C@@H]2CSSC[C@@H]3NC(=O)[C@H](C(C)C)NC(=O)[C@H](CC(C)C)NC(=O)[C@H](CC(N)=O)NC(=O)[C@@H]4CCCN4C(=O)[C@H](CCCNC(=N)N)NC(=O)[C@H](CSSC[C@H](NC(=O)[C@@H](N)CC(=O)O)C(=O)N[C@@H](CC(C)C)C(=O)NCC(=O)N[C@@H](C)C(=O)N[C@@H](CCSC)C(=O)N[C@@H](CCCNC(=N)N)C(=O)N[C@@H](CCCCN)C(=O)N2)NC(=O)[C@H](CSSC[C@@H](C(=O)N[C@@H](CCCCN)C(=O)N[C@@H](Cc2cn(C)c4ccccc24)C(=O)N[C@H](C(=O)N[C@@H](Cc2ccccc2)C(N)=O)C(C)C)NC(=O)[C@H](Cc2c[nH]c4ccccc24)NC(=O)[C@H](CCCCN)NC(=O)[C@H](Cc2c[nH]cn2)NC(=O)[C@H]([C@@H](C)O)NC(=O)[C@H](CCCNC(=N)N)NC(=O)[C@H](CO)NC3=O)NC(=O)[C@H](CCCCN)NC(=O)[C@H](CC(=O)O)NC(=O)[C@H](CC(N)=O)NC(=O)[C@H](CC(=O)O)NC(=O)[C@@H]2CCCN2C1=O [[Ala5;1′NMeW32]GpTx-1(1-34)] (H-DCLGAMRKCIPDNDKCCRPNLVCSRTHKWCK[Trp(1-Me)]VF-NH2; disulfide 2-17, 9-23, 16-30)
- IC50 (hNav1.5): > 10000 nM
- IC50 (hNav1.7): 18 nM
